Reference: patent US20260035367A1 (Celgene Corporation, priority 2021, published 2026)
Like-named read-outs stand apart in the source and are kept apart here.

Assays:
[1] = target: T1, Recombinant human PKC-theta (His-tagged 362-706) (Homo sapiens, UniProt Q04759); assay: PKC-theta inhibition assay (HTRF KinEASE kit); type: biochemical; conditions: ATP 6.5 μM, STK substrate 525 nM
T1 construct: Recombinant human PKC-theta (His-tagged 362-706); His
Procedure, shortened: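 IC50 values were from 4-parameter logistic fits of percent inhibition, based on acceptor/donor HTRF ratios over 10 semi-log compound doses. Kinase reactions, started with substrate plus ATP, ran 30 min at 25 °C in buffer supplemented with 10 mM MgCl2, 1 mM DTT and 0.1% Tween 20; detection lasted 2 h.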

[2] = tested on: IL-2 secretion by human effector memory T cells (TEM); assay: Effector memory T cells IL-2 release assay (CD3/CD28 stimulation, HTRF IL-2 detection); type: cell-based; conditions: 24 h; for IC50: Homo sapiens, T-cell
Procedure, shortened: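 IL-2 released into the supernatant was quantified by HTRF after 24 h at 37 °C in 5% CO2. The cells were stimulated primary human TEM from donor buffy coats, treated with a 10-point semi-log compound series (0.1% DMSO final, triplicates).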

[3] = target: T2, Recombinant human PKC-delta (His-tagged 345-676) (Homo sapiens, UniProt Q05655); assay: PKC-delta inhibition assay (HTRF KinEASE kit); type: biochemical; conditions: ratio, PKC-theta vs PKC-delta HTRF; for PKC-theta/PKC-delta selectivity (binned): binned A to G
T2 construct: PKC-delta (His-tagged 345-676); His
T2 sequence (Q05655 345-676): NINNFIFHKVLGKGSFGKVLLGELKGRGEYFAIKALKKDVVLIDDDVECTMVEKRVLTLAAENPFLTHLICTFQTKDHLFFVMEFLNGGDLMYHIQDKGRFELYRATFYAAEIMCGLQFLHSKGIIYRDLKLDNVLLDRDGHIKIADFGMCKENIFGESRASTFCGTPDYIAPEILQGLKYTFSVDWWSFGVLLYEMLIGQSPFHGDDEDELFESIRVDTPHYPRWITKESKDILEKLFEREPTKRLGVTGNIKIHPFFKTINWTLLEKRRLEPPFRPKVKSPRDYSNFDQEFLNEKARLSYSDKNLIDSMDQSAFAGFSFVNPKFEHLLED

[4] = binned A to H, read-out: PKC-theta HTRF pIC50 (binned) (converted)
[5] = read-out: PKC-theta HTRF pIC50 (converted)
[6] = binned A to G, read-out: PKC-theta IL2 pIC50 (binned) (converted)
[7] = read-out: PKC-theta IL2 pIC50 (converted)

T1 sequence (Q04759 362-706): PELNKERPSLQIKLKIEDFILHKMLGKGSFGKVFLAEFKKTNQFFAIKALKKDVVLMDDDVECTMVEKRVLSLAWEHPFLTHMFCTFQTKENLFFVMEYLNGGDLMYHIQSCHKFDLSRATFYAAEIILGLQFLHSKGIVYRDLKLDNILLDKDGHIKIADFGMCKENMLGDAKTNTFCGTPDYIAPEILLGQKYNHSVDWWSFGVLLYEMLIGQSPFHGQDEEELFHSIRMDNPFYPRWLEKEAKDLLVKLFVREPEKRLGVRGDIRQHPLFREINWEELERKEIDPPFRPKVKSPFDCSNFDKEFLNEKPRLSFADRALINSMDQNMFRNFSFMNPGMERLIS

SMILES | IC50 [1, 4] [nM] | IC50 [1, 5] [nM] | IC50 [2, 6] [nM] | IC50 [2, 7] [nM] | PKC-theta/PKC-delta selectivity [3] | PKC-theta/PKC-delta selectivity (binned) [3] | PKC-theta IL2 pIC50 [2] | PKC-theta IL2 pIC50 (binned) ([2]; binned A to G)
CC[C@]1(C)C(=O)Nc2nccc(-c3cc(C(F)(F)F)cc(N4CCNC[C@H]4C)n3)c21 (single isomer, unassigned) [Example 197] | 0.316 to 1 | 1 | 10 to 31.6 | 15.8 | 14 | D (a ratio of between 10 and 20) | – | –
O=c1[nH]c2nccc(-c3cc(C(F)(F)F)cc(N4CCNCC4)n3)c2[nH]1 [Example 68] | 31.6 to 100 | 31.6 | 316 to 1000 | 501 | 11 | D (a ratio of between 10 and 20) | – | –
CC1(C)C(=O)Nc2nccc(-c3cc(N4CCNCC4)cc(C(F)(F)F)c3)c21 [Example 37] | 31.6 to 100 | 100 | > 1000 | 1260 | 5 | F (a ratio of between 1 and 5) | – | –
CC1(C)C(=O)Nc2nccc(-c3cc(C#N)cc(N4CCNCC4)c3)c21 [Example 53] | 100 to 316 | 251 | > 1000 | 1580 | 3 | F (a ratio of between 1 and 5) | – | –
C[C@@H]1CNCCN1c1cc(Cl)cc(-c2c(F)cnc3c2C(C)(C)C(=O)N3)n1 [Example 155] | 3.16 to 10 | 3.98 | 31.6 to 100 | 50.1 | 17 | D (a ratio of between 10 and 20) | – | –
C[C@@]1(O)C(=O)Nc2nccc(-c3cc(Cl)cc(N4CCNCC(F)C4)n3)c21 (single isomer, unassigned) [Example 91] | 3.16 to 10 | 6.31 | 100 to 316 | 200 | 6 | E (a ratio of between 5 and 10) | – | –
CC[C@H]1CN(c2cc(C(F)(F)F)cc(-c3ccnc4c3C(C)(O)C(=O)N4)n2)CCN1 (some centres unmarked) [Example 71] | 1 to 3.16 | 1.26 | 31.6 to 100 | 31.6 | 12 | D (a ratio of between 10 and 20) | – | –
CC1(C)C(=O)Nc2nccc(-c3cc(C(F)F)cc(N4CCNCC4)n3)c21 [Example 87] | 3.16 to 10 | 6.31 | 100 to 316 | 100 | 10 | D (a ratio of between 10 and 20) | – | –
CC1(C)C(=O)Nc2nccc(-c3cc(C(F)(F)F)nc(N4CCNCC4)n3)c21 [Example 98] | 10 to 31.6 | 20 | 100 to 316 | 316 | 15 | D (a ratio of between 10 and 20) | – | –
C[C@@H]1CCN(c2cc(C(F)(F)F)cc(-c3ccnc4c3C(C)(C)C(=O)N4)n2)CCN1 [Example 184] | 10 to 31.6 | 10 | 100 to 316 | 251 | 20 | C (a ratio of between 20 and 30) | – | –
CC1(C)C(=O)Nc2nccc(-c3cc(C(F)(F)F)cc(N4CC5CCC4CN5)n3)c21 (centres unmarked) [Example 137] | 10 to 31.6 | 12.6 | 100 to 316 | 251 | 16 | D (a ratio of between 10 and 20) | – | –
CC1(C)C(=O)Nc2nccc(-c3cc(F)cc(N4CCNCC4)c3)c21 [Example 29] | 31.6 to 100 | 31.6 | 316 to 1000 | 501 | 1 | F (a ratio of between 1 and 5) | – | –
C[C@@H]1CN(c2cc(-c3ccnc4c3C(C)(O)C(=O)N4)cc(C(F)(F)F)c2)CCN1 (some centres unmarked) [Example 77] | 31.6 to 100 | 100 | > 1000 | 2510 | 12 | D (a ratio of between 10 and 20) | – | –
CC[C@@]1(C)C(=O)Nc2nccc(-c3cc(C(C)(F)F)cc(N4CCCNCC4)n3)c21 (single isomer, unassigned) [Example 206] | 31.6 to 100 | 31.6 | 316 to 1000 | 631 | 23 | C (a ratio of between 20 and 30) | – | –
CC1(C)C(=O)Nc2nccc(-c3cc(C(F)(F)F)cc(N4C[C@H]5CC[C@@H](C4)N5)n3)c21 [Example 135] | 10 to 31.6 | 20 | 100 to 316 | 316 | 13 | D (a ratio of between 10 and 20) | – | –
CO[C@]1(C)C(=O)Nc2nccc(-c3cc(C(F)(F)F)cc(N4CCNC[C@H]4C)n3)c21 (single isomer, unassigned) [Example 176] | 10 to 31.6 | 12.6 | – | – | 20 | C (a ratio of between 20 and 30) | 6.9 | E (a measured pIC50 of between 6.5 and 7.0)
CCC1(C)C(=O)Nc2nccc(-c3cc(Cl)cc(N4CCNC[C@H]4C)n3)c21 (some centres unmarked) [Example 146] | 1 to 3.16 | 2.51 | 10 to 31.6 | 25.1 | 4 | F (a ratio of between 1 and 5) | – | –
C[C@H]1CN(c2cc(-c3ccnc4c3[C@@](C)(O)C(=O)N4)cc(C(F)(F)F)c2)CCN1 (single isomer, unassigned) [Example 81] | 10 to 31.6 | 25.1 | – | – | 9 | E (a ratio of between 5 and 10) | 6.7 | E (a measured pIC50 of between 6.5 and 7.0)
C[C@@H]1CN(c2cccc(-c3ccnc4[nH]c(=O)[nH]c34)c2)C[C@H](C)N1 [Example 11] | > 1000 | 2510 | > 1000 | 6310 | 4 | F (a ratio of between 1 and 5) | – | –
CC1(C)C(=O)Nc2nccc(-c3cc(C(F)(F)F)cc(C4(CO)CCNC4)n3)c21 (centres unmarked) [Example 70] | 1 to 3.16 | 2.51 | 316 to 1000 | 398 | 30 | B (a ratio of between 30 and 50) | – | –
C[C@@]1(O)C(=O)Nc2nccc(-c3cc(F)cc(N4CCNCC4)c3)c21 (single isomer, unassigned) [Example 63] | 316 to 1000 | 1000 | > 1000 | 10000 | – | G (a ratio of 0 to 1) | – | –
C[C@@H]1CN(c2cc(Cl)cc(-c3ccnc4c3C(C)(O)C(=O)N4)c2)CCN1 (some centres unmarked) [Example 76] | 31.6 to 100 | 50.1 | 316 to 1000 | 794 | 11 | D (a ratio of between 10 and 20) | – | –
CC1(O)C(=O)Nc2nccc(-c3cc(N4CCNCC4)ccc3F)c21 (centres unmarked) [Example 60] | 100 to 316 | 126 | > 1000 | 1580 | 4 | F (a ratio of between 1 and 5) | – | –
CC1(C)C(=O)Nc2nccc(-c3cccc(N4CCNC(Cc5cccnc5)C4)c3)c21 (centres unmarked) [Example 67] | 31.6 to 100 | 50.1 | > 1000 | 1000 | 3 | F (a ratio of between 1 and 5) | – | –
CC[C@H]1CN(c2cc(Cl)cc(-c3ccnc4c3[C@@](C)(OC)C(=O)N4)n2)CCN1 (single isomer, unassigned) [Example 151] | 10 to 31.6 | 12.6 | – | 126 | 15 | D (a ratio of between 10 and 20) | – | E (a measured pIC50 of between 6.5 and 7.0)
C[C@@H]1CCNCCN1c1cc(C(F)(F)F)cc(-c2ccnc3c2C(C)(C)C(=O)N3)n1 [Example 188] | 3.16 to 10 | 6.31 | 31.6 to 100 | 100 | 28 | C (a ratio of between 20 and 30) | – | –
CC1(C)C(=O)Nc2nccc(-c3ccnc(N4CCNCC4)c3)c21 [Example 28] | > 1000 | 1260 | > 1000 | 10000 | 1 | G (a ratio of 0 to 1) | – | –
CCC1(C)C(=O)Nc2nccc(-c3cc(F)cc(N4CCNCC4)c3)c21 (centres unmarked) [Example 33] | 31.6 to 100 | 50.1 | 316 to 1000 | 794 | 2 | F (a ratio of between 1 and 5) | – | –
